# Measured values reported in PMC6178189 (Oxidative Medicine and Cellular Longevity, 2018).
# Target: T1, rat intestinal α-glucosidase
# T1 construct: gene Si; crude saline extract of commercial rat intestinal acetone powder (Sigma-Aldrich); mixed brush-border alpha-glucosidases, not purified
# Experiment: p-nitrophenol release from pNPG, […] nm
# Type: biochemical
# Conditions: 5 mM p-nitrophenyl glucopyranoside (maltose or sucrose also named in method; substrate of the table value not told), 0.1 M phosphate pH 6.9, 37°C, 30 min, crude enzyme
structure (smiles),measurement,value
C[C@H]1O[C@H](O[C@H]2[C@H](O)[C@@H](O)[C@@H](O[C@H]3[C@H](O)[C@@H](O)C(O)O[C@@H]3CO)O[C@@H]2CO)[C@H](O)[C@@H](O)[C@@H]1N[C@H]1C=C(CO)[C@@H](O)[C@H](O)[C@H]1O (stereo partly shown) [acarbose],IC50 (mg/mL) / α-Glucosidase,1.63 ± 0.10 mg/mL
